{"source": "patent US10538564B2", "about": "“Peptides having osteoblast growth-promoting activity and use thereof” (PHARMA FOODS INTERNATIONAL CO., LTD., priority 2014, dated 2020)", "key": {"[1]": {"test_system": "mature female rats (eight months old)", "assay": "Bone formation-promoting effect in mature rats", "assay_type": "in vivo, rat", "settings": "20 weeks", "description": "Synthetic peptide No. 1 was administered to mature female rats (eight months old, ten rats in each group) by oral gavage using a gastric tube once a day for 20 weeks. The dose of the synthetic peptide was 1, 10 or 100 mg/kg·day."}, "[2]": {"test_system": "aged female rats (13 to 14 months old)", "assay": "Bone formation-promoting effect in aged rats", "assay_type": "in vivo, rat", "settings": "oral 1, 10 or 100 mg/kg·day, 20 weeks", "description": "Synthetic peptide No. 1 was administered to aged female rats (13 to 14 months old, ten rats in each group) by oral gavage using a gastric tube once a day for 20 weeks. The dose of the synthetic peptide was 1, 10 or 100 mg/kg·day."}, "[3]": {"test_system": "Crlj:W1 male rats at four weeks old", "assay": "Mineral apposition rate in secondary cancellous bone, 7-day oral administration", "assay_type": "in vivo, rat", "settings": "seven days", "description": "One of the synthetic peptides (No. 1) or water for injection (control) was administered to Crlj:W1 male rats at four weeks old by oral gavage using a gastric tube once a day for seven days (n=10 in each group). The dose of the synthetic peptide was 1, 10 or 100 mg/kg-day. As a positive control, human growth hormone (hGH) (Norditropin, Standard Commodity Classification No. of Japan: 872412) was subcutaneously administered at 500 μg/kg·day once a day for seven days. As fluorescent labels for the site of bone formation, tetracycline (20 mg/kg) was subcutaneously administered on day 4 after the administration of the peptide or control, and then calcein (10 mg/kg) was subcutaneously administered on day 6 after the administration of the peptide or control. After the administration of the test sample on day 7, the rats were kept under fasting conditions. Twenty-four hours later, the rats were euthanized by bloodletting under anesthesia, and the tibiae were harvested. Non-decalcified specimens of the proximal tibiae were prepared and photographed under a fluorescent microscope (BX-53, OLYMPUS). The bone morphology was measured using a morphometry system (Histometry RT digitizer, System Supply Co., Ltd.) and an analysis software (CSS-840 cancellous bone morphometry version, System Supply Co., Ltd.). The mineral apposition rate (MAR), per day, in the secondary cancellous bone was determined by measuring the distance between the tetracycline label and the calcein label in the secondary cancellous bone, and dividing the distance by the administration interval between the fluorescent labels (two days). […] The increase in the mineral apposition rate in the secondary cancellous bone in the No. 1 administration group would have resulted from the increase in the number of osteoblasts."}, "[4]": {"test_system": "ovariectomized (OVX) female rats", "assay": "Postmenopausal osteoporosis model of ovariectomized rats", "assay_type": "in vivo, rat", "settings": "for bone density compared with sham operation group / volume of the cancellous bone compared with sham operation group: six months", "description": "Female rats (eight months old, ten rats in each group) underwent ovariectomy (OVX), and synthetic peptide No. 1 was administered to the rats by oral gavage using a gastric tube once a day from the first postoperative day for six months. The dose of the synthetic peptide was 1, 10 or 100 mg/kg·day."}, "[5]": {"test_system": "Sprague-Dawley male rats at three weeks old", "assay": "Bone growth promoting effect in adolescent rats (tibial growth plate, calcein label)", "assay_type": "in vivo, rat", "settings": "FIG. 13", "description": "One of the synthetic peptides (No. 1) or physiological saline (control) was administered to Sprague-Dawley male rats at three weeks old by oral gavage using a gastric tube once a day for four days. The dose of the synthetic peptide was 1, 10 or 100 mg/kg·day. As a positive control, human growth hormone (hGH) (Norditropin, Standard Commodity Classification No. of Japan: 872412) was subcutaneously administered at 20 μg/kg·day once a day for four days. After the administration on day 4, calcein was subcutaneously administered, and the rats were kept for one day. The rats were euthanized by bloodletting under anesthesia, and the tibiae were harvested. The tissue specimens of the tibial growth plates were prepared, and calcein deposition areas (fluorescent regions) on the tibial growth plates were measured under a fluorescent microscope to determine the longitudinal bone growth."}, "[6]": {"test_system": "mouse-derived chondrogenic cell line ATDC5", "assay": "Chondrocyte growth-promoting activity (Cell Counting Kit-8)", "assay_type": "cell-based", "settings": "10 nmol/mL; 72 hours; relative to control taken as 100%; FIG. 14", "description": "This study was performed using mouse-derived chondrogenic cell line ATDC5 (RIKEN BANK, RBC0565). ATDC5 cells in the logarithmic growth phase were suspended at 3×10^4 cells/mL in Eagle MEM medium supplemented with 5% FCS (fetal calf serum), and 100 μL of the cell suspension was seeded in each well of a 96-well plate and precultured at 5% CO2 and 95% air at 37° C. On the next day, the medium in each well was removed, and medium containing the synthetic peptide (No. 1 or No. 6) at 10 nmol/mL was added. The cells were cultured for 72 hours. As a control, medium without a synthetic peptide was added. The reaction solution ([…]) of Cell Counting Kit-8 (Dojindo Laboratories) was added to each well. The plate was incubated for 3 hours, and the absorbance at 450 nm was measured with a microplate reader. The activity of the synthetic peptides for promoting the growth of chondrocytes was expressed in terms of the relative value, with the absorbance (growth rate) in the control group taken as 100%."}, "[7]": {"test_system": "mouse-derived cell line ATDC5", "assay": "Hyaluronic acid production-promoting activity (ELISA of culture supernatant)", "assay_type": "cell-based", "settings": "10 nmol/mL; supernatant after 48 hours of culture; FIG. 15", "description": "This study was performed using the mouse-derived cell line ATDC5 as used in Example 4. ATDC5 cells in the logarithmic growth phase were seeded at 2×10^4 cells/mL per well in a 24-well plate containing DMEM/F-12 (1:1) medium supplemented with 5% FCS (fetal calf serum), 10 μg/mL transferrin and 3×10^−8 M sodium selenite. The cells were precultured at 5% CO2 and 95% air at 37° C. On the next day, the medium in each well was removed, and medium containing the synthetic peptide (No. 1 or No. 6) at 10 nmol/mL was added. The cells were cultured for […]. As a control, medium without a synthetic peptide was added. After 48 hours of culture, the culture supernatants were collected, and their hyaluronic acid concentrations were measured using QnE Hyaluronic Acid ELISA Assay (Biotech Trading Partners). The concentrations of hyaluronic acid in the culture supernatants of the synthetic peptide addition group were calculated by subtracting the absorbance of the background from the absorbance of the supernatants, and fitting the resulting values to the reference curve prepared using the standard."}, "[8]": {"settings": "No. 1 oral 1, 10 or 100 mg/kg·day, alendronate 300 μg/kg subcutaneous, vs control group"}, "[9]": {"settings": "oral 1, 10 or 100 mg/kg·day for six months"}, "[10]": {"settings": "oral 1, 10 or 100 mg/kg·day for six months, significant vs OVX-control group"}}, "note": "No end group written: not given here.", "data": [{"sequence": "VNPESEEE [No. 1]", "values": [{"measurement": "levels of the increases (femur bone density, cancellous bone volume) compared with alendronate", "setting": "[1]", "value": "comparable to those in the alendronate administration group"}, {"measurement": "bone density in the femurs", "setting": "[1]; [8]", "value": "significantly increased"}, {"measurement": "cancellous bone volume in the proximal tibial metaphysis", "setting": "[1]; [8]", "value": "significantly increased"}, {"measurement": "bone density in the femurs", "setting": "[2]", "value": "increased in a dose-dependent manner"}, {"measurement": "cancellous bone volume in the proximal tibial metaphysis", "setting": "[2]", "value": "increased in a dose-dependent manner"}, {"measurement": "mineral apposition rate (MAR) in the secondary cancellous bone, vs control group", "setting": "[3]; No. 1 oral 1, 10 or 100 mg/kg-day, hGH 500 μg/kg·day subcutaneous, FIG. 26", "value": "significant increase in the mineral apposition rate"}, {"measurement": "osteoblast surface/bone surface (Ob.S/BS)", "setting": "[3]; oral 1, 10 or 100 mg/kg-day, FIG. 27", "value": "high percentage"}, {"measurement": "number of osteoblasts/tissue volume (N.Ob/TV)", "setting": "[3]; oral 1, 10 or 100 mg/kg-day, FIG. 28", "value": "high number of osteoblasts"}, {"measurement": "bone formation rate/bone surface (BFR/BS)", "setting": "[3]; oral 1, 10 or 100 mg/kg-day, FIG. 29", "value": "high rates"}, {"measurement": "bone formation rate/bone surface (BFR/BS), vs control group", "setting": "[3]; oral dose of 10 mg/kg-day or more", "value": "significant increase in the bone formation rate"}, {"measurement": "mineral apposition rate (MAR) in the secondary cancellous bone, vs hGH administration group", "setting": "[3]; oral dose of 10 mg/kg·day or more, FIG. 26", "value": "significant increase in the mineral apposition rate at a dose of 10 mg/kg·day or more as compared with the hGH administration group"}, {"measurement": "bone density compared with sham operation group", "setting": "[4]; high-dose 100 mg/kg·day oral", "value": "equal or higher bone density as compared with the sham operation group"}, {"measurement": "volume of the cancellous bone compared with sham operation group", "setting": "[4]; high-dose 100 mg/kg·day oral", "value": "equal or higher volume of the cancellous bone as compared with the sham operation group"}, {"measurement": "bone density compared with sham operation group", "setting": "[4]; medium-dose 10 mg/kg·day oral", "value": "equal or higher bone density as compared with the sham operation group"}, {"measurement": "volume of the cancellous bone compared with sham operation group", "setting": "[4]; medium-dose 10 mg/kg·day oral", "value": "equal or higher volume of the cancellous bone as compared with the sham operation group"}, {"measurement": "OVX-induced increase in the trabecular separation", "setting": "[4]; [9]", "value": "tended to be inhibited"}, {"measurement": "OVX-induced reduction in the trabecular numbers", "setting": "[4]; [9]", "value": "tended to be inhibited"}, {"measurement": "OVX-induced reduction in the trabecular width", "setting": "[4]; [9]", "value": "tended to be inhibited"}, {"measurement": "bone density of the distal femoral metaphysis", "setting": "[4]; [10]", "value": "increase in the bone density of the distal femoral metaphysis in a manner consistent with the increase in the dose of the synthetic peptide"}, {"measurement": "cancellous bone volume in the proximal tibial metaphysis", "setting": "[4]; [10]", "value": "increased in the OVX-synthetic peptide administration group in a manner consistent with the increase in the dose"}, {"measurement": "effect of enhancing the increase in the height of the tibial growth plates, compared with hGH", "setting": "[5]; highest dose (100 mg/kg·day oral) vs hGH 20 μg/kg·day subcutaneous, four days", "value": "comparable to the effect of the subcutaneous administration of the human growth hormone"}, {"measurement": "increase in the height of the tibial growth plates", "setting": "[5]; oral gavage 1, 10 or 100 mg/kg·day once a day for four days", "value": "enhanced in a manner consistent with the increase in the dose of the synthetic peptide"}, {"measurement": "chondrocyte growth-promoting activity", "setting": "[6]", "value": "showed chondrocyte growth-promoting effect"}, {"measurement": "hyaluronic acid production-promoting activity (hyaluronic acid concentration in culture supernatant)", "setting": "[7]", "value": "showed hyaluronic acid production-promoting effect"}]}]}
